Data set [1] has as its target T1, Cytochrome P450 11B1, mitochondrial (Homo sapiens, UniProt P15538).
T1 sequence (P15538 whole entry): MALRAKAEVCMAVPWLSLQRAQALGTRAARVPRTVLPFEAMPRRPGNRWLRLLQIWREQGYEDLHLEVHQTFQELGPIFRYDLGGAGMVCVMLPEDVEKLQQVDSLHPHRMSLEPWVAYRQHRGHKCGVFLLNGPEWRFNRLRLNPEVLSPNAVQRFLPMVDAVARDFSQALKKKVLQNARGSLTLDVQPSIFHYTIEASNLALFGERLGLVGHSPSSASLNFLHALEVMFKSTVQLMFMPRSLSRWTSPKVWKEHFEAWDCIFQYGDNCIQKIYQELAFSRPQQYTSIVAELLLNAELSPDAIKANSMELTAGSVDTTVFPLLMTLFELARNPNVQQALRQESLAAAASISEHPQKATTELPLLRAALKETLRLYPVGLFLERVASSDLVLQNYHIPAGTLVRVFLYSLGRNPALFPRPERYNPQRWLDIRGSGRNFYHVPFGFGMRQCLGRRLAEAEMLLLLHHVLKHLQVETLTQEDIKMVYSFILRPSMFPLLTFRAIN
In words: Inhibition of human CYP11B1 expressed in hamster fibroblast using 100 nM [3H]-11-deoxycorticosterone as substrate after 25 mins by HPLC analysis.

Data set [2] addresses T2, Cytochrome P450 11B2, mitochondrial (Homo sapiens, UniProt P19099).
T2 sequence (P19099 whole entry): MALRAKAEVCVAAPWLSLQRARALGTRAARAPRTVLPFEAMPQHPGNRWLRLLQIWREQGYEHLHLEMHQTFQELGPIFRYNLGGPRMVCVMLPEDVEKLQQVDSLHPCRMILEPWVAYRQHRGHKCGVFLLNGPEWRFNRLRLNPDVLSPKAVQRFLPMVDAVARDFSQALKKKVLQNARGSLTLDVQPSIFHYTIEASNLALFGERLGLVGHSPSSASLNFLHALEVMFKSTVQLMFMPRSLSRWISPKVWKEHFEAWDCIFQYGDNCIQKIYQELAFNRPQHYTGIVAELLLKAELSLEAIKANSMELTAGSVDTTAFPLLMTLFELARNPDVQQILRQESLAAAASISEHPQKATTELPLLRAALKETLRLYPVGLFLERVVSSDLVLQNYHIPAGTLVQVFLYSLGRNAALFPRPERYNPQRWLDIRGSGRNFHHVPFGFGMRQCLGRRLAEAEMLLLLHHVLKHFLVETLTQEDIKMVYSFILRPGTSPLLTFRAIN
In words: Inhibition of human CYP11B2 expressed in hamster fibroblast using 100 nM [3H]-11-deoxycorticosterone as substrate after 45 mins by HPLC analysis.

The next data set is filed under the species Homo sapiens. In words: Selectivity index, ratio of IC50 for human CYP11B2 to IC50 for human CYP11B1.
The nature of data set [3]: Retention time of the compound by HPLC analysis. It counts as physicochemical.
In a further data set the target is T3, Aromatase (Homo sapiens, UniProt P11511).
T3 sequence (P11511 whole entry): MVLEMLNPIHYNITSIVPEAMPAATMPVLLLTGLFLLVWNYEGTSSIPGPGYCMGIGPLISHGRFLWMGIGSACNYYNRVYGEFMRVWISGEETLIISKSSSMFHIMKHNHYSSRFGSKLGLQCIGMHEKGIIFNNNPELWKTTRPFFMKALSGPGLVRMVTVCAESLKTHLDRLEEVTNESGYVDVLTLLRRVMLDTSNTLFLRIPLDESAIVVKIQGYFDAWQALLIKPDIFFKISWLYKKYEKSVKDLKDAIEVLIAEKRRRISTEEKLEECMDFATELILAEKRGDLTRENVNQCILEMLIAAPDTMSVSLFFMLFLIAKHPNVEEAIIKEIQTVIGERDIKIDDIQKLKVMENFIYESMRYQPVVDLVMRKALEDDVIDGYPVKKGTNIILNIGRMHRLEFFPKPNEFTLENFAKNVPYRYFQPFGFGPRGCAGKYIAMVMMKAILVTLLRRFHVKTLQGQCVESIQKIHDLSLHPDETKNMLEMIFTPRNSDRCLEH
The data set is described as follows: Inhibition of human CYP19 expressed in hamster fibroblast using 500 nM [1beta-3H] androstenedione as substrate by HPLC analysis.

In data set [4] the target is T4, Cytochrome P450 11B1, mitochondrial (Rattus norvegicus, UniProt P15393).
T4 sequence (P15393 whole entry): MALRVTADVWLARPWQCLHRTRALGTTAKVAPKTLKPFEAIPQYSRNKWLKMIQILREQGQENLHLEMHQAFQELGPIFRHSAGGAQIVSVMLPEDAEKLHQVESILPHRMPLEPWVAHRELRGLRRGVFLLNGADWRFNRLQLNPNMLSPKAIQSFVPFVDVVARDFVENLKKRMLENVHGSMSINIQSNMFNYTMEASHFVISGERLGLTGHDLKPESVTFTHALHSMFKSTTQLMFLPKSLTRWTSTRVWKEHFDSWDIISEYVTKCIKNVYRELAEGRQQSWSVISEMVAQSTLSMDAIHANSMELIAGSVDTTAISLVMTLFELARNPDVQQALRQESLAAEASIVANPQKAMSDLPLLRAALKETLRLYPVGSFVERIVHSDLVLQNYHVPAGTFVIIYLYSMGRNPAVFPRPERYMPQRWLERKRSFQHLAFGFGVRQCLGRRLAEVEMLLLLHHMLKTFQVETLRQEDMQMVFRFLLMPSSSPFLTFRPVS
In words: Inhibition of rat CYP11B1 expressed in hamster fibroblast using 500 nM [3H]-11-deoxycorticosterone as substrate after 7 hrs by HPLC analysis.

pIC50: −log10 of the molar value.

For the molecule `Fc1ccc(-c2cccnc2)c(OCCc2ccccc2)c1`, the figures for the pIC50 in data set [1] and in data set [2] were 7.29 and 7.08, respectively. Besides, the Selectivity Index in the data set listed under Homo sapiens was 1.6. Also, the Retention_time in data set [3] was 9.57 min.

Consider `COc1ccc(-c2ccncc2)c(OCCc2ccccc2)c1`, for which the pIC50 (commonly −log10 of the IC50, conventionally taken in molar units) in data set [1] is 7.34; in data set [2] it was 7.15. Also, the Selectivity Index in the data set filed under Homo sapiens amounted to 1.5. In data set [3], this molecule came in with a Retention_time of 9.2 min.

Consider `Nc1ccc(-c2cccnc2)c(OCc2ccccc2)c1`, for which the pIC50 was 6.27 in data set [1], 6.59 in data set [2] and 6.35 against Aromatase. The Selectivity Index in the data set filed under Homo sapiens was 0.5. The Retention_time in data set [3] is 5.63 min.

In the case of `O=C(Nc1ccc(-c2cccnc2)c(OCc2ccccc2)c1)c1ccc(F)cc1`, the values for the pIC50 in data set [1] and in data set [2] were 5.92 and 6.12, respectively. Also, the Selectivity Index in the data set filed under Homo sapiens was found to be 0.6. In data set [3], this molecule had a Retention_time of 8.67 min.

With `FC(F)(F)c1ccc(-c2ccncc2)c(OCCc2ccccc2)c1`, the pIC50 in data set [1] was 7.59; in data set [2], 7.62; at Aromatase it was 5.68. Moreover, in the data set listed under Homo sapiens, the Selectivity Index is 0.9. In data set [3], this molecule yielded a Retention_time of 10.13 min.

For the molecule `c1ccc(CCOc2cccnc2-c2ccncc2)cc1`, the pIC50 is 5.57 in data set [1] and 5.61 in data set [2]. For the same molecule, the Selectivity Index in the data set listed under Homo sapiens is 0.9. Besides, the Retention_time in data set [3] came to 7.91 min.

In the case of `O=[N+]([O-])c1ccc(-c2cccnc2)cc1OCCc1ccccc1`, the pIC50 was 6.29 in data set [1] and 6.35 in data set [2]. Moreover, the Selectivity Index in the data set listed under Homo sapiens was 0.9. This molecule registered a Retention_time in data set [3] of 9.8 min.

As for `N#Cc1ccc(-c2cccnc2)c(OCCc2ccccc2)c1`, the pIC50 in data set [1] was 7.42; in data set [2], 7.20; on Aromatase it was 6.78; in data set [4] it was 6.27. The Selectivity Index in the data set filed under Homo sapiens stood at 1.6. Moreover, in data set [3], the Retention_time came to 8.85 min.

In the case of `COc1ccc(-c2cccnc2)c(OCCc2ccccc2)c1`, the figures for the pIC50 in data set [1] and in data set [2] were 6.74 and 6.64, respectively. Moreover, the Selectivity Index in the data set filed under Homo sapiens turned out to be 1.3. The same molecule had a Retention_time in data set [3] of 9.07 min.

At Aromatase, `Cc1cncc(Cc2ccc(-c3ccccc3)nc2)c1` gave a pIC50 of less than 5.30. For the same molecule, in the data set listed under Homo sapiens, the Selectivity Index came to 15.1.

Take `O=[N+]([O-])c1ccc(-c2ccncc2)c(OCc2ccccc2)c1`: the pIC50 in data set [1] is 7.30; in data set [2] it was 7.06; at Aromatase it was 5.62; in data set [4], 6.19. Further, the Selectivity Index in the data set listed under Homo sapiens turned out to be 1.7. The molecule further came in with a Retention_time in data set [3] of 9.02 min.

On to `CN(C)C(=O)c1ccc(-c2ccncc2)c(OCCc2ccccc2)c1`, for which the pIC50 in data set [1] is 5.94; in data set [2], 6.09. Besides, the Selectivity Index in the data set filed under Homo sapiens was 0.7. The same molecule registered a Retention_time in data set [3] of 7.51 min.

On to `O=[N+]([O-])c1ccc(-c2cccnc2)c(OCc2ccccc2)c1`, for which the pIC50 was 7.64 in data set [1], 7.77 in data set [2], 6.84 at Aromatase and 5.83 in data set [4]. Besides, the Selectivity Index in the data set filed under Homo sapiens was found to be 0.7. Moreover, the Retention_time in data set [3] was found to be 9.07 min.

With `Fc1ccc(-c2ccncc2)c(OCCc2ccccc2)c1`, the pIC50 is 7.22 in data set [1] and 7.13 in data set [2]. In addition, in the data set listed under Homo sapiens, the Selectivity Index was determined as 1.2. In addition, the Retention_time in data set [3] is given as 9.32 min.

Consider `O=[N+]([O-])c1ccc(-c2ccncc2)c(OCCc2ccccc2)c1`, for which the pIC50 was 8.70 in data set [1], 8.15 in data set [2], 5.72 on Aromatase and 6.79 in data set [4]. Besides, in the data set filed under Homo sapiens, the Selectivity Index is 3.5. The molecule further returned a Retention_time in data set [3] of 9.21 min.

Turning to `CC(=O)Nc1ccc(-c2cccnc2)c(OCc2ccccc2)c1`, the results for the pIC50 in data set [1] and in data set [2] were 6.55 and 6.19, respectively. Moreover, the Selectivity Index in the data set listed under Homo sapiens came out at 2.3. The same molecule yielded a Retention_time in data set [3] of 7.25 min.

On to `N#Cc1ccc(-c2ccncc2)c(OCCc2ccccc2)c1`, for which the pIC50 in data set [1] was 7.92; in data set [2], 7.64; at Aromatase, 5.81; in data set [4] it was 6.36. The Selectivity Index in the data set filed under Homo sapiens is 1.9. The Retention_time in data set [3] worked out at 8.71 min.

On to `O=[N+]([O-])c1ccc(-c2ccncc2)cc1OCCc1ccccc1`, for which the pIC50 in data set [1] is 5.92; in data set [2], 6.15. Also, in the data set filed under Homo sapiens, the Selectivity Index turned out to be 0.6. The Retention_time in data set [3] stood at 9.57 min.

`O=[N+]([O-])c1ccc(-c2cccnc2)c(OCCCc2ccccc2)c1`: the pIC50 in data set [1] is 8.22; in data set [2] it was 7.82; at Aromatase, 6.86; in data set [4], 5.68. In addition, the Selectivity Index in the data set listed under Homo sapiens was determined as 2.5. In data set [3], the Retention_time turned out to be 9.28 min.

Regarding `O=[N+]([O-])c1ccc(Cc2ccncc2)c(OCCc2ccccc2)c1`, the negative-log IC50 (pIC50) in data set [1] was 8.22; in data set [2], 7.80; against Aromatase, 6.80; in data set [4], 5.55. For the same molecule, in the data set listed under Homo sapiens, the Selectivity Index was 2.7. The molecule further showed a Retention_time in data set [3] of 9.55 min.

As for `O=[N+]([O-])c1ccc(-c2ccncc2)c(OCCCc2ccccc2)c1`, the pIC50 was 8.10 in data set [1], 7.74 in data set [2], 5.30 against Aromatase and 6.43 in data set [4]. In addition, the Selectivity Index in the data set listed under Homo sapiens amounted to 2.4. In data set [3], this molecule registered a Retention_time of 9.33 min.

`c1ccc(-c2ccc(Cn3ccnc3)cn2)cc1`: the pIC50 against Aromatase was less than 5.30; in data set [4], less than 5.00. Besides, in the data set filed under Homo sapiens, the Selectivity Index stood at 13.3.

Regarding `CN(C)C(=O)c1ccc(-c2cccnc2)c(OCCc2ccccc2)c1`, the results for the pIC50 in data set [1] and in data set [2] were 6.23 and 6.52, respectively. Moreover, the Selectivity Index in the data set filed under Homo sapiens is 0.5. Moreover, the Retention_time in data set [3] is given as 7.56 min.

`COc1cc2c(cc1-c1cccnc1)CCC(=O)N2` gave a pIC50 in data set [1] of 5.60. The Selectivity Index in the data set listed under Homo sapiens stood at 0.1.

Regarding `FC(F)(F)c1ccc(-c2cccnc2)c(OCCc2ccccc2)c1`, the pIC50 in data set [1] is 6.09; in data set [2], 6.02. Moreover, the Selectivity Index in the data set listed under Homo sapiens was 1.2. In data set [3], this molecule displayed a Retention_time of 10.3 min.

Take `c1ccc(CCOc2cccnc2-c2cccnc2)cc1`: the pIC50 was 5.78 in data set [1] and 5.84 in data set [2]. For the same molecule, in the data set filed under Homo sapiens, the Selectivity Index is 0.9. In data set [3], this molecule displayed a Retention_time of 7.73 min.

Turning to `O=C1CCc2cc(-c3cccnc3)c(OCc3ccccc3)cc2N1`, the pIC50 in data set [4] was 5.82. Besides, in the data set listed under Homo sapiens, the Selectivity Index was determined as 0.5.

On to `CC(C)(C(=O)c1cccnc1)c1cccnc1` [METYRAPONE], for which the pIC50 against Aromatase is less than 5.30; in data set [4], 5.34.

Source of the values: ChEMBL document CHEMBL3421536, “Identification of 4-(4-nitro-2-phenethoxyphenyl)pyridine as a promising new lead for discovering inhibitors of both human and rat 11β-Hydroxylase” (Eur J Med Chem, 2015).
